Source: patent publication US9326973B2, “Hepatitis C virus inhibitors” (priority 2012, dated 2016)

Legend:
Assay type in all cases: cell-based, HCV genotype 1a
[1] = tested on: HCV replicon, genotype 1a L31V variant with leucine 31 changed to valine in the NS5A protein; conditions: test compound titrated in combination with a fixed 200 nM compound N47; genotype 1a L31V replicon
[2] = tested on: HCV replicon, genotype 1a Y93H variant with tyrosine 93 changed to histidine in the NS5A protein; conditions: test compound titrated in combination with a fixed 200 nM compound N47; genotype 1a Y93H replicon
Method: Combinations can be examined for synergistic activity using a variety of putative NS5A-targeting compounds and a variety of test compounds. […] The test compound can be chosen from compounds exemplified below, which were prepared by methods known in the art, or from others disclosed in the literature.
Similarly, BMS-790052 can be tested singly and in combination with a fixed amount of compound N47 in the HCV replicon cell based assay consisting of the genotype 1a Y93H variant with tyrosine 93 changed to histidine in the NS5A protein.

[3] = tested on: HCV replicon, genotype-1a variant with glutamine 30 changed to glutamate in the NS5A protein; assay: microbe, parasite or virus in culture; conditions: HCV replicon genotype 1a Q30E (Q→E) variant; test compound titrated with an NS5A-targeting compound (BMS-790052 fixed at 200 nM); ranking of synergist activity
How it was run: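 Synergy was assessed by combining several fixed amounts of an NS5A-targeting compound with a titration of the second compound of interest.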

Row | Structure (SMILES) | Fold-Synergistic G-1a (L31V) [1] [Fold] | Fold-Synergistic G-1a (Y93H) [2] [Fold] | Fold-Synergistic 1a (Q30E) [3] [fold]
1 | O=C(Nc1ccc(/C=C/c2ccc(NC(=O)[C@@H]3CCCN3C(=O)Cc3ccccc3)cc2)cc1)C1CCCN1C(=O)Cc1ccccc1 (some centres unmarked) | <10 | <10 | 
2 | O=C(Nc1ccc(/C=C/c2ccc(NC(=O)[C@@H]3CCCN3C(=O)Cc3cccnc3)nc2)cn1)C1CCCN1C(=O)Cc1cccnc1 (some centres unmarked) | <10 | <10 | 
3 | COC(=O)N[C@@H](C(=O)N1CCC[C@H]1c1ncc(-c2ccc(-c3ccc(-c4cnc([C@@H]5CCCN5C(=O)[C@H](NC(=O)OC)c5ccccc5)[nH]4)cc3)cc2)[nH]1)c1ccccc1 | <10 |  | 
4 | COC(=O)N[C@@H](C(=O)N1CCCC1c1ncc(C#CC#Cc2cnc([C@@H]3CCCN3C(=O)[C@H](NC(=O)OC)c3ccccc3)[nH]2)[nH]1)c1ccccc1 (some centres unmarked) | <10 | <10 | 
5 | COC(=O)NC(C(=O)N1[C@@H]2C[C@@H]2C[C@H]1c1nc2ccc(-c3ccc4cc(-c5ccc6nc([C@@H]7C[C@H]8C[C@H]8N7C(=O)[C@@H](NC(=O)OC)C(C)C)[nH]c6c5)ccc4c3)cc2[nH]1)C(C)C (some centres unmarked) | >10 | >10 | 
6 | COC(=O)N[C@H](C(=O)N1CCC[C@H]1C1=C(c2ccc(C#Cc3ccc4[nH]c([C@@H]5CCCN5C(=O)[C@@H](NC(=O)OC)C(C)C)nc4c3)cc2)NCN1)C(C)C | <10 | >10 | 
7 | COC(=O)N[C@H](C(=O)N1C[C@H](C)C[C@H]1c1ncc(-c2ccc(-c3ccc(-c4cnc([C@@H]5C[C@@H](C)CN5C(=O)[C@@H](NC(=O)OC)C(C)C)[nH]4)cc3)cc2)[nH]1)C(C)C | >100 | >100 | 
8 | COC(=O)N[C@H](C(=O)N1CCC[C@H]1c1cn(-c2ccc(-c3ccc(-n4cnc([C@@H]5CCCN5C(=O)[C@@H](NC(=O)OC)C(C)C)c4)cc3)cc2)cn1)C(C)C | >10 | >10 | 
9 | COC(=O)N[C@H](C(=O)N1CCC[C@H]1c1nc2cc(C#Cc3ccc4[nH]c([C@@H]5CCCN5C(=O)[C@@H](NC(=O)OC)C(C)C)nc4c3)ccc2[nH]1)C(C)C |  | <10 | 
10 | CN(C)[C@@H](C(=O)N1CCCC[C@H]1c1ncc(-c2ccc(-c3ccc(-c4cnc([C@@H]5CCCCN5C(=O)[C@@H](c5ccccc5)N(C)C)[nH]4)cc3)cc2)[nH]1)c1ccccc1 |  | <10 | 
11 | O=C(Cc1ccccc1F)N1CCC[C@H]1c1ncc(-c2ccc(-c3ccc(-c4cnc([C@@H]5CCCN5C(=O)Cc5ccccc5F)[nH]4)cc3)cc2)[nH]1 [Compound S-178] |  |  | <10
12 | CC(C)(C)[C@H](NC(=O)C(C)(O)C(F)(F)F)c1nc(-c2ccc(-c3ccc(-c4c[nH]c([C@@H](NC(=O)C(C)(O)C(F)(F)F)C(C)(C)C)n4)cc3)cc2)c[nH]1 (stereo partly drawn) [Compound L-66a] |  |  | >100
13 | CC(C)[C@H](NC(=O)C(=O)N(C(C)C)C1CC1)c1nc(-c2ccc(-c3ccc(-c4c[nH]c([C@@H](NC(=O)C(=O)N(C(C)C)C5CC5)C(C)C)n4)cc3)cc2)c[nH]1 [Compound W-55] |  |  | >100
14 | CC(C)(C)[C@H](NC(=O)C1CCCOC1)c1nc(-c2ccc(-c3ccc(-c4c[nH]c([C@@H](NC(=O)C5CCCOC5)C(C)(C)C)n4)cc3)cc2)c[nH]1 (some centres unmarked) [Compound W-131] |  |  | >100
15 | Cc1ccc(C(F)(F)C(=O)N[C@H](c2nc(-c3ccc(-c4ccc(-c5c[nH]c([C@@H](NC(=O)C(F)(F)c6ccc(C)cc6)C(C)(C)C)n5)cc4)cc3)c[nH]2)C(C)(C)C)cc1 [Compound S-288] |  |  | >100
16 | CC(=O)N(C)C1(C(=O)N[C@H](c2nc(-c3ccc(-c4ccc(-c5c[nH]c([C@@H](NC(=O)C6(N(C)C(C)=O)CC6)C(C)(C)C)n5)cc4)cc3)c[nH]2)C(C)(C)C)CC1 [Compound L-11] |  |  | >100
